According to article PMC10584170, “Machine learning-based phenotypic imaging to characterise the targetable biology of Plasmodium falciparum male gametocytes for the development of transmission-blocking antimalarials” (PLOS Pathogens, 2023):
Read-outs that look alike come from different tables or passages of the source.

Key:
[1] = tested on: P. falciparum male gametocytes; assay: P. falciparum Dual Gamete Formation Assay (PfDGFA), male readout (exflagellation); type: cell-based, Plasmodium falciparum NF54
Method: (§1) P. falciparum NF54 (originally isolated from an imported malaria case in the Netherlands in the 1980s; BEI Resources, cat. No. MRA-1000) strain asexual parasites were maintained between 0.3–5% parasitaemia by regular passage in complete culture medium (RPMI supplemented with 25 mM HEPES, 50 μg ml^−1 hypoxanthine, 4.8 g l^−1 NaHCO3, 2mM L-glutamine, 5% pooled type AB serum, 0.5% Albumax II (Gibco)) at 4% haematocrit in washed whole blood (National Blood and Transfusion Service or Centro de Transfusiones de la Comunidad de Madrid CTCM) under a 1% O2/3% CO2/96% N2 environment. Gametocytes were induced by seeding culture flasks at 2% parasitaemia/4% haematocrit and subjecting them to daily medium changes for 14 days whilst maintaining a temperature of 37°C at all times. On Day 14, the maturity of gametocytes was assessed by quantifying male gametogenesis (exflagellation). A 20 μl sample of gametocyte culture was mixed with equal volume of ookinete medium (complete culture medium supplemented with 0.1 μM xanthurenic acid) at room temperature and transferred to a haemocytometer. After 20 min at room temperature, exflagellation was accurately quantified as described in Delves et al. 2016 [17].
(§2) The Pf DGFA was performed as described in Delves et al. 2016 [17]. […] Plates were then incubated for 24 h at 37°C in a humidified box under a 1% O2/3% CO2/96% N2 gas mix. Gametogenesis was triggered by addition of 10 μl per well of ookinete medium + 0.27 μg ml^-1 Cy3-labelled anti-Pfs25 antibody. Plates were incubated on a metal block at 4°C for 4 min to ensure even cooling, then 28°C for a further 4 min. Exflagellation was recorded by capturing 10 frames over 1 s under brightfield illumination using a x4 objective with a 1.5x zoom (effectively x6) attached to an automated Nikon Ti fluorescence microscope. After recording exflagellation, plates were incubated for a further 24 h in the dark at 28°C to ensure maximal expression of Pfs25 by female gametes. The plates were then returned to the microscope and female gametes imaged at x6 using fluorescence microscopy.
(§3) Exflagellation centres and female gametes were quantified using custom image analysis pipelines developed within ICY Bioimage Analysis (https://icy.bioimageanalysis.org/).

[2] = tested on: P. falciparum female gametocytes; assay: P. falciparum Dual Gamete Formation Assay (PfDGFA), female readout (Pfs25-positive female gametes); type: cell-based, Plasmodium falciparum NF54
Method: as §1, §2, §3

[3] = 2µM, 24h preincubation with gametocytes prior to induction of gametogenesis, average of replicates
[4] = 2µM, 24h preincubation with gametocytes prior to induction of gametogenesis, replicate R1
[5] = 2µM, 24h preincubation with gametocytes prior to induction of gametogenesis, replicate R4
[6] = 2µM, 24h preincubation with gametocytes prior to induction of gametogenesis, replicate R3
[7] = 2µM, 24h preincubation, number of replicates with >50% inhibition in the male readout
[8] = 2µM, 24h preincubation, number of replicates with >50% inhibition in the female readout
[9] = PfDGFA at 2µM, 24h preincubation with gametocytes, average of replicates
[10] = PfDGFA at 2µM, 24h preincubation with gametocytes, replicate R1
[11] = PfDGFA at 2µM, 24h preincubation with gametocytes, replicate R3
[12] = PfDGFA at 2µM, 24h preincubation with gametocytes, replicate R4

COc1ccc(CNC2CCN(C)CC2)cc1-c1ccc(S(=O)(=O)NC2CCC2)s1.O=C(O)C(F)(F)F [TCMDC-132254]
Average inhibition male (%) [1, 3]: 56.3% | % inhibition male (individual replicates) R1 [1, 4]: 57.2% | % inhibition male (individual replicates) R4 [1, 5]: 49.8% | HitlevelM ([1]; 2µM, 24h preincubation, hits selected on >50% inhibition in the male readout across replicates): 2 | Activity ([1]; PfDGFA at 2µM, 24h preincubation, hit = >50% inhibition in male or female readout in at least 3 replicates, 0 = no class assigned): 0 | Average inhibition female (%) [2, 3]: 16.7% | % inhibition female (individual replicates) R1 [2, 4]: 16.7% | % inhibition female (individual replicates) R3 [2, 6]: 22.1% | % inhibition female (individual replicates) R4 [2, 5]: 14.8% | HitlevelF ([2]; 2µM, 24h preincubation, hits selected on >50% inhibition in the female readout across replicates): 0

Cl.N=C(NCCCc1ccccc1)c1cccc(C(=N)NCCCc2ccccc2)n1 [TCMDC-137453]
Average inhibition male (%) [1, 3]: 15.3% | % inhibition male (individual replicates) R1 [1, 4]: 11.4% | % inhibition male (individual replicates) R3 [1, 6]: -5.0% | % inhibition male (individual replicates) R4 [1, 5]: 33.6% | HitlevelM [1, 7]: 0 | Average inhibition female (%) [2, 3]: 26.7% | % inhibition female (individual replicates) R1 [2, 4]: 21.1% | % inhibition female (individual replicates) R3 [2, 6]: 29.3% | % inhibition female (individual replicates) R4 [2, 5]: 27.4% | HitlevelF [2, 8]: 0

Cl.N[C@@H](CCNC1CCN(c2cccc(C(F)(F)F)c2)CC1)Cc1ccc(F)c(F)c1 [TCMDC-132301]
Average inhibition male (%) [1, 3]: 53.1% | % inhibition male (individual replicates) R1 [1, 4]: 61.1% | % inhibition male (individual replicates) R3 [1, 6]: 44.2% | % inhibition male (individual replicates) R4 [1, 5]: 79.6% | HitlevelM [1, 7]: 2 | Average inhibition female (%) [2, 3]: 52.8% | % inhibition female (individual replicates) R1 [2, 4]: 47.6% | % inhibition female (individual replicates) R3 [2, 6]: 42.6% | % inhibition female (individual replicates) R4 [2, 5]: 73.6% | HitlevelF [2, 8]: 1

Fc1ccc2[nH]c(-c3cccc(-c4cccc(CNCCN5CCNCC5)c4)c3)nc2c1.O=C(O)C(F)(F)F [TCMDC-132860]
Average inhibition male (%) [1, 9]: 74.7% | % inhibition male (individual replicates) R1 [1, 10]: 80.2% | % inhibition male (individual replicates) R3 [1, 11]: 48.0% | % inhibition male (individual replicates) R4 [1, 12]: 89.6% | HitlevelM ([1]; number of replicates with >50% inhibition in the male readout, 2µM): 3 | Average inhibition female (%) [2, 9]: -9.5% | % inhibition female (individual replicates) R1 [2, 10]: 8.6% | % inhibition female (individual replicates) R3 [2, 11]: -31.9% | % inhibition female (individual replicates) R4 [2, 12]: -13.7% | HitlevelF ([2]; number of replicates with >50% inhibition in the female readout, 2µM): 0

Br.Oc1ccc(CCNCCCCCCNCCc2ccc(Cl)c3ccccc23)cc1O [TCMDC-131271]
Average inhibition male (%) [1, 3]: 50.9% | % inhibition male (individual replicates) R1 [1, 4]: 51.3% | % inhibition male (individual replicates) R3 [1, 6]: 62.1% | % inhibition male (individual replicates) R4 [1, 5]: 62.3% | HitlevelM [1, 7]: 3 | Average inhibition female (%) [2, 3]: 16.5% | % inhibition female (individual replicates) R1 [2, 4]: 16.8% | % inhibition female (individual replicates) R3 [2, 6]: 9.0% | % inhibition female (individual replicates) R4 [2, 5]: 24.5% | HitlevelF [2, 8]: 0

FC(F)(F)c1cccc(NC(=S)NN=Cc2ccccn2)c1 [TCMDC-123509]
Selectivity Ratio M ([1]; HepG2 Tox50 versus male IC50): 143.09 | inhibition at 2 µM ([1]; Plasmodium falciparum, 2µM, 24h preincubation with gametocytes, average of replicates, read-out: Average inhibition male (%)): 94.6% | inhibition at 2 µM ([1]; Plasmodium falciparum, 2µM, 24h preincubation with gametocytes, replicate R1, read-out: % inhibition male (individual replicates) R1): 103% | inhibition at 2 µM ([1]; Plasmodium falciparum, 2µM, 24h preincubation with gametocytes, replicate R2, read-out: % inhibition male (individual replicates) R2): 94.6% | inhibition at 2 µM ([1]; Plasmodium falciparum, 2µM, 24h preincubation with gametocytes, replicate R3, read-out: % inhibition male (individual replicates) R3): 102% | inhibition at 2 µM ([1]; Plasmodium falciparum, 2µM, 24h preincubation with gametocytes, replicate R4, read-out: % inhibition male (individual replicates) R4): 79.6% | IC50 ([1]; Plasmodium falciparum, PfDGFA, 24 h incubation with gametocytes before induction, exflagellation readout, read-out: Male IC50): 700 nM | Selectivity ratio F ([2]; HepG2 Tox50 versus female IC50): 142.25 | inhibition at 2 µM ([2]; Plasmodium falciparum, 2µM, 24h preincubation with gametocytes, average of replicates, read-out: Average inhibition female (%)): 50.5% | inhibition at 2 µM ([2]; Plasmodium falciparum, 2µM, 24h preincubation with gametocytes, replicate R1, read-out: % inhibition female (individual replicates) R1): 35.3% | inhibition at 2 µM ([2]; Plasmodium falciparum, 2µM, 24h preincubation with gametocytes, replicate R2, read-out: % inhibition female (individual replicates) R2): 76.8% | inhibition at 2 µM ([2]; Plasmodium falciparum, 2µM, 24h preincubation with gametocytes, replicate R3, read-out: % inhibition female (individual replicates) R3): 45% | inhibition at 2 µM ([2]; Plasmodium falciparum, 2µM, 24h preincubation with gametocytes, replicate R4, read-out: % inhibition female (individual replicates) R4): 45% | IC50 ([2]; Plasmodium falciparum, PfDGFA, 24 h incubation with gametocytes before induction, female gamete readout, read-out: Female IC50): 700 nM
